pEC50, pIC50: −log10 of the molar value.
What was measured:
Format in all cases: cell-based
[1] = system: primary human mesenchymal stem cells (hMSCs); assay: Chondrogenesis induction in primary human mesenchymal stem cells (nodule imaging, Rhodamine B/Nile Red); conditions: 144 h, 6 days; for EC (100% TGF-beta3 activity): concentration required to induce chondrogenesis equivalent to TGF-β3 positive control, read-out: Conc (nM) of 100% TGF-β3 activity; for Emax: relative to TGF-β3 (10 ng/mL) positive control, read-out: Max. Activity as % TGF-β3 activity
Description: The above synthesized compounds were screened using primary human mesenchymal stem cells (hMSCs) to determine their ability to induce chondrogenesis (process by which cartilage is developed).
Primary human mesenchymal stem cells (hMSCs) were purchased from Lonza (Walkersville, Md.) and expanded in Mesenchymal Stem Cell Growth Media (Lonza). Cells between passage 3 and 6 were used for the experiments.
Each compound was dissolved in DMSO as a 10 mM stock and used to prepare compound source plates. Serial dilution (1:3, 6-point dose-response curves from 2700 nM to 10 nM) and compound transfer was performed using the ECHO 550 (Labcyte, Sunnyvale, Calif.) into 96-well clear bottom assay plates (Greiner Bio-One) with appropriate DMSO backfill for a final DMSO concentration of 0.03%. hMSCs were plated at 20,000 cells/well in 250 μL/well Incomplete Chondrogenic Induction Medium (Lonza; DMEM, dexamethasone, ascorbate, insulin-transferrin-selenium [ITS supplement], gentamycin-amphotericin [GA-1000], sodium pyruvate, proline and L-glutamine). TGF-β3 (10 ng/mL) was used as a positive control for differentiation while negative control wells were treated with 75 nL DMSO for normalization and calculating EC50 values. Cells were incubated at 37° C. and 5% CO2 for 6 days. To image chondrogenic nodules, the cells were fixed using 4% formaldehyde (Electron Microscopy Sciences), and stained with 2 μg/mL Rhodamine B (Sigma-Aldrich) and 20 μM Nile Red (Sigma-Aldrich) [Johnson K., et. al, A Stem Cell-Based Approach to Cartilage Repair, Science, (2012), 336(6082), 717-721]. The nodules imaged (4 images per well at 4× magnification) by excitation at 531 nm and emission at 625 nm and quantified using the CellInsight CX5 (Thermo Scientific). Number of nodules in each well was normalized to the average of 3 DMSO treated wells on the same plate using Excel (Microsoft Inc.). The normalized averages (fold change over DMSO) of 3 replicate wells for each compound concentration were calculated. Due to solubility limitations of some of the compounds, curve fitting was incomplete leading to inaccurate EC50 determinations.
Using TGF-03 as a positive control, the concentration of test compounds required to induce equivalent levels of chondrogenesis is reported. In addition, the maximum activity of each compound and the respective dose that each compound reached maximum chondrogenesis activity is reported.

[2] = system: Wnt activity (Wnt-responsive Sp5 promoter-luciferase reporter in SW480 cells); assay: Wnt activity screening assay: Sp5-Luc reporter gene in SW480 colon carcinoma cells; conditions: Homo sapiens
How it was run: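 IC50 values come from variable-slope four-parameter fits of luciferase signal normalized to DMSO wells. Stable Sp5-Luc reporter SW480 colon carcinoma cells were exposed to compounds in a 3-fold dilution series (source plates from 10 mM stock) for forty-two hours at 37 °C.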

[3] = system: primary human fibroblasts derived from IPF patients (LL29 cells); assay: Inhibition of fibrotic process: αSMA staining in TGF-β1-treated primary human fibroblasts from IPF patients (LL29 cells); conditions: Fibroblast, 96 h, LL29 cells treated with TGF-β1 (20 ng/mL), 4 days, 11-point dose-response from 10 μM to 1.87 nM, read-out: Inhibition of fibrosis EC50
How it was run: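 LL29 IPF lung fibroblasts in F12 with 1% FBS, compound (11-point, 10 μM to 1.87 nM, 0.1% DMSO) plus TGF-β1 20 ng/mL for 4 days at 37° C. αSMA-positive % of SYTOX-negative cells by immunofluorescence imaging, normalized to TGF-β1 wells; EC50 from non-linear regression of triplicates.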

[4] = system: ARPE-19 cells; assay: Transdifferentiation of ARPE-19 cells into eye neuronal cells [photoreceptors] (PAX6 staining); conditions: Homo sapiens, 40 hours, normalized to DMSO
Description: The above synthesized compounds were screened using ARPE-19 cells [a spontaneously arising retinal pigment epithelia (RPE) cell line] to determine their ability to transdifferentiate ARPE-19 into eye neuronal cells [photoreceptors].
ARPE-19 cells are cultured in standard culture medium containing Dulbecco's Modified Eagle's Medium and Ham's F12 Nutrient Mixture (DMEM/F12) mix (1:1)+GlutaMax with 1% penicillin-Streptomycin and 10% FBS (Fetal Bovine Serum). Cells are incubated at 37° C. with 5% CO2. Cells are trypsinized and plated onto 384-well pre-spotted plate at a density of 3000 cells/well in 50 uL of media. Plating media: DMEM/F12 (1:1)+3% charcoal filtered-FBS+GlutaMax+1% pen/Strep. Cells are incubated at 37° C. with 5% CO2. At 40 hours, cells were fixed for 15 min with 10% Buffered Formalin. Cells were then washed 3 times with PBS for 5 min each, permeablize using 0.3% Triton X-100 in 1×PBS for 30 min, block for 1 hr with 2% BSA in 1×PBS with 0.1% Triton X-100. The primary antibody (1:100 PAX6 Santa Cruz Biotech; sc-81649) was diluted and 10 μL/well was added to the cells. The cells were incubated overnight at 4° C. […] Readings were normalized to DMSO only treated cells, and normalized activities were utilized for EC50 calculations using the dose-response log (activator) vs. response-variable slope (four parameters) nonlinear regression feature available in GraphPad Prism 5.0 or 6.0.

Row | pIC50 [2] | SMILES | EC (100% TGF-beta3 activity) [1] | Emax [1] | pEC50 [3] | pEC50 [4]
1 | 7.87 | CCNCc1cncc(-c2cc3c(-c4nc5c(-c6cccc(F)c6)cncc5[nH]4)n[nH]c3cn2)c1 [Compound 6, N-((5-(3-(7-(3-Fluorophenyl)-3H-imidazo[4,5-c]pyridin-2-yl)-1H-pyrazolo[3,4-c]pyridin-5-yl)pyridin-3-yl)methyl)ethanamine] | 136 nM | 300% | 6.29 | 
2 | 7.84 | CCNCc1cncc(-c2cc3c(-c4nc5c(-c6ccc(F)cc6)cncc5[nH]4)n[nH]c3cn2)c1 [Compound 32, N-((5-(3-(7-(4-Fluorophenyl)-3H-imidazo[4,5-c]pyridin-2-yl)-1H-pyrazolo[3,4-c]pyridin-5-yl)pyridin-3-yl)methyl)ethanamine] | 110 nM |  | ≥ 8.05 | 
3 | 7.35 | FC1(F)CCN(Cc2cncc(-c3cc4c(-c5nc6c(N7CCCCC7)cncc6[nH]5)n[nH]c4cn3)c2)C1 [Compound 181, 5-(5-((3,3-Difluoropyrrolidin-1-yl)methyl)pyridin-3-yl)-3-(7-(piperidin-1-yl)-3H-imidazo[4,5-c]pyridin-2-yl)-1H-pyrazolo[3,4-c]pyridine] | 100 nM | 10% | ≥ 8.05 | 
4 | 7.48 | CCCC(=O)Nc1cncc(-c2cc3c(-c4nc5c(-c6ccsc6)cncc5[nH]4)n[nH]c3cn2)c1 [Compound 251, N-(5-(3-(7-(Thiophen-3-yl)-3H-imidazo[4,5-c]pyridin-2-yl)-1H-pyrazolo[3,4-c]pyridin-5-yl)pyridin-3-yl)butyramide] | 42 nM |  | ≥ 8.05 | 
5 | 7.51 | CCC(=O)Nc1cncc(-c2cc3c(-c4nc5c(-c6cccs6)cncc5[nH]4)n[nH]c3cn2)c1 [Compound 287, N-(5-(3-(7-(Thiophen-2-yl)-3H-imidazo[4,5-c]pyridin-2-yl)-1H-pyrazolo[3,4-c]pyridin-5-yl)pyridin-3-yl)propionamide] | 84.2 nM | 300% | 6.50 | 
6 | 8.13 | CC(C)CC(=O)Nc1cncc(-c2cc3c(-c4nc5c(-c6ccc(F)s6)cncc5[nH]4)n[nH]c3cn2)c1 [Compound 314, N-(5-(3-(7-(5-Fluorothiophen-2-yl)-3H-imidazo[4,5-c]pyridin-2-yl)-1H-pyrazolo[3,4-c]pyridin-5-yl)pyridin-3-yl)-3-methylbutanamide] | 180 nM | 900% | 6.76 | 
7 | 8.43 | CC(C)(C)C(=O)Nc1cncc(-c2cc3c(-c4nc5c(-c6ccc(F)s6)cncc5[nH]4)n[nH]c3cn2)c1 [Compound 320, N-(5-(3-(7-(5-Fluorothiophen-2-yl)-3H-imidazo[4,5-c]pyridin-2-yl)-1H-pyrazolo[3,4-c]pyridin-5-yl)pyridin-3-yl)pivalamide] | 41 nM |  | 6.99 | 
8 | 8.24 | Cc1ccc(-c2cncc3[nH]c(-c4n[nH]c5cnc(-c6cncc(N)c6)cc45)nc23)s1 [Compound 341, 5-(3-(7-(5-Methylthiophen-2-yl)-3H-imidazo[4,5-c]pyridin-2-yl)-1H-pyrazolo[3,4-c]pyridin-5-yl)pyridin-3-amine] | 162 nM | 100% | ≥ 8.05 | 
9 | 8.17 | Cc1ccc(-c2cncc3[nH]c(-c4n[nH]c5cnc(-c6cncc(NC(=O)C7CCC7)c6)cc45)nc23)s1 [Compound 358, N-(5-(3-(7-(5-Methylthiophen-2-yl)-3H-imidazo[4,5-c]pyridin-2-yl)-1H-pyrazolo[3,4-c]pyridin-5-yl)pyridin-3-yl)cyclobutanecarboxamide] | 231 nM | 100% | 7.72 | 
10 | 7.62 | CCCC(=O)Nc1cncc(-c2cc3c(-c4nc5c(-c6cc(F)cc(CNS(C)(=O)=O)c6)cncc5[nH]4)n[nH]c3cn2)c1 [Compound 407, N-(5-(3-(7-(3-Fluoro-5-(methylsulfonamidomethyl)phenyl)-3H-imidazo[4,5-c]pyridin-2-yl)-1H-pyrazolo[3,4-c]pyridin-5-yl)pyridin-3-yl)butyramide] | 79.2 nM | 30% | < 5.00 | 
11 | 7.15 | Cn1cc(-c2cc3c(-c4nc5c(-c6cccc(F)c6)cncc5[nH]4)n[nH]c3cn2)cn1 [Compound 888, 3-(7-(3-Fluorophenyl)-3H-imidazo[4,5-c]pyridin-2-yl)-5-(1-methyl-1H-pyrazol-4-yl)-1H-pyrazolo[3,4-c]pyridine] | 71 nM | 100% | ≥ 8.05 | 
12 | 6.99 | NC1CN(c2cncc(-c3cc4c(-c5nc6c(-c7cccc(F)c7)cncc6[nH]5)n[nH]c4cn3)n2)C1 [Compound 890, 1-(6-(3-(7-(3-Fluorophenyl)-3H-imidazo[4,5-c]pyridin-2-yl)-1H-pyrazolo[3,4-c]pyridin-5-yl)pyrazin-2-yl)azetidin-3-amine] |  |  | 7.06 | 8.05
13 | 6.36 | CN(C)CCOc1cncc(-c2cc3c(-c4nc5c(-c6cccc(F)c6)cncc5[nH]4)n[nH]c3cn2)c1 [Compound 895, 2-((5-(3-(7-(3-Fluorophenyl)-3H-imidazo[4,5-c]pyridin-2-yl)-1H-pyrazolo[3,4-c]pyridin-5-yl)pyridin-3-yl)oxy)-N,N-dimethylethan-1-amine] |  |  | ≤ 5.00 | 6.79
14 | 7.51 | COc1cncc(-c2cc3c(-c4nc5c(-c6cccc(F)c6)cncc5[nH]4)n[nH]c3cn2)c1 [Compound 896, 3-(7-(3-Fluorophenyl)-3H-imidazo[4,5-c]pyridin-2-yl)-5-(5-methoxypyridin-3-yl)-1H-pyrazolo[3,4-c]pyridine] | 140 nM | 300% | ≥ 8.05 | 
15 | 6.29 | CN(C)CC(=O)Nc1cncc(-c2cc3c(-c4nc5c(-c6cccc(F)c6)cncc5[nH]4)n[nH]c3cn2)c1 [Compound 1367, 2-(Dimethylamino)-N-(5-(3-(7-(3-fluorophenyl)-3H-imidazo[4,5-c]pyridin-2-yl)-1H-pyrazolo[3,4-c]pyridin-5-yl)pyridin-3-yl)acetamide] |  |  | 6.84 | 

Source: patent US10052331B2, “3-(3H-imidazo[4,5-C]pyridin-2-yl)-1H-pyrazolo[3,4-C]pyridine and therapeutic uses thereof” (Samumed, LLC, priority 2014, dated 2018)
